Measurements from patent US20230382889A1 (Volastra Therapeutics, Inc., priority 2022, published 2023).
Like-named read-outs stand apart in the source and are kept apart here.

How the values were obtained:
HCC15 cells = assay: Cell viability of KIF18a-sensitive cell lines, HCC15 (Cell Titre-Glo, 7 days); assay type: cell-based; settings: read-out: HCC15 IC50
Protocol: (§1) Cell lines were seeded as follows 24 hours before compound treatment: HCC15 (Korean Cell Line Bank) 600 cell/well, 95 μL of RPMI-1640 media supplemented with 100 units/mL penicillin, 100 units/mL streptomycin and 10% FBS; NIH:OVCAR-3 (ATCC), 1000 cell/well, 95 μL of RPMI-1640 media supplemented with 100 units/mL penicillin, 100 units/mL streptomycin, 0.01 mg/mL bovine insulin, and 20% FBS; JIMT-1 (Addexbio) 1000 cell/well, 95 μL of DMEM media supplemented with 100 units/mL penicillin, 100 units/mL streptomycin, and 10% FBS.
(§2) Test compounds were added to cells in a 20× dilution scheme by adding 5 μL of serially diluted compound to the plate, and the treated cells were incubated for an additional 7 days in a 37° C., 5% CO2 incubator. DMSO was used as the negative control (0% effect), and wells omitting cells were used as the positive control (100% effect). The cells were incubated for seven days, and cell viability determined via the Promega Cell Titre-Glo® Assay kit. Luminescence units were converted to ATP concentrations via an ATP standard curve (10 point, 2-fold dilution from 5 uM). % Inhibition was calculated for each well as: ([max−min]−[test−min])/[max−min]. IC50 values were calculated from concentration vs. % Inhibition data via a four-parameter variable slope model.

NIH:OVCAR-3 cells = assay: Cell viability of KIF18a-sensitive cell lines, NIH:OVCAR-3 (Cell Titre-Glo, 7 days); assay type: cell-based; settings: read-out: NIH:OVCAR3 IC50
Protocol: as §1, §2

JIMT-1 cells = assay: Cell viability of KIF18a-sensitive cell lines, JIMT-1 (Cell Titre-Glo, 7 days); assay type: cell-based; settings: read-out: JIMT-1 IC50
Protocol: as §1, §2

hKIF18A (1-374) = hKIF18A (1-374) (Homo sapiens (Human), UniProt Q8NI77); assay: Inhibition of KIF18A microtubule-dependent ATPase activity (ADP-Glo); assay type: biochemical; settings: 4 nM hKIF18A (1-374)
Method in brief: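 Reaction was started with pre-formed microtubules and ATP (0.2 mg/mL and 2.0 mM in the added mix) and run 60 min at 28 °C. ADP was read by ADP-Glo luminescence, and IC50 came from a four-parameter fit of % inhibition.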

[1] = biological target: KIF18a-microtubule complex (Homo sapiens (Human), UniProt Q8NI77); assay: Binding kinetics to KIF18a-microtubule complex (global progress curve analysis); settings: for kon (on-rate from binding kinetics assay) / koff: KIF18A 0.25 nM, up to 24 hr; for koff: read-out: koff (off-rate from binding kinetics assay) (converted); for Ki: koff/kon, read-out: KI (determined from binding kinetic assay koff/kon)
Protocol: Compound binding kinetics parameters (kon and koff) were determined by the method of global progress curve analysis (GPCA). […] ADP product levels were determined by the Promega® ADP-Glo assay.

[2] = Homo sapiens, OVCAR-3, 168 h, NIH:OVCAR3, 7 days
[3] = Homo sapiens, 168 h, JIMT-1, 7 days

Chain of hKIF18A (1-374) (Q8NI77 1-374): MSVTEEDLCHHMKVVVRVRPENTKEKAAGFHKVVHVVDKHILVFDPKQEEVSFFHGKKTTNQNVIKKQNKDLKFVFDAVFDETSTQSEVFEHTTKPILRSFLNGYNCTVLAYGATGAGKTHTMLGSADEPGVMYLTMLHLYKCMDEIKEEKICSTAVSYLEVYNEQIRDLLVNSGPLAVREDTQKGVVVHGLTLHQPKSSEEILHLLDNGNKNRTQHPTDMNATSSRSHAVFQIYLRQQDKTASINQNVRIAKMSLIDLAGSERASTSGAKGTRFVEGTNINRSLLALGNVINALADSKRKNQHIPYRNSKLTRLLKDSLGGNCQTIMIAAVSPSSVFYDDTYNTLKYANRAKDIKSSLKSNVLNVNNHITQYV
Chain of KIF18a-microtubule complex (Q8NI77 1-374, one chain of several): as the sequence (Q8NI77 1-374) above

Structure (SMILES): CS(=O)(=O)Nc1ccc(-n2cc(-c3cccc(S(=O)(=O)N4CC(F)(F)C4)c3)nn2)c(N2CCC3(CC2)CC3)c1 [Compound 13, N-(4-(4-(3-((3,3-difluoroazetidin-1-yl)sulfonyl)phenyl)-1H-1,2,3-triazol-1-yl)-3-(6-azaspiro[2.5]octan-6-yl)phenyl)methanesulfonamide]
- IC50 (HCC15 cells; 168 h, HCC15, 7 days): 0.003 µM
- IC50 (NIH:OVCAR-3 cells; [2]): 0.0045 µM
- IC50 (JIMT-1 cells; [3]): 0.0047 µM
- IC50 (hKIF18A (1-374)): 0.0072 µM

Structure (SMILES): O=S(=O)(CCO)Nc1ccc(-n2cc(-c3ccn(C4CCC(F)(F)CC4)n3)nn2)c(N2CCC3(CCC3)CC2)c1 [Compound 130, N-(4-(4-(1-(4,4-difluorocyclohexyl)-1H-pyrazol-3-yl)-1H-1,2,3-triazol-1-yl)-3-(7-azaspiro[3.5]nonan-7-yl)phenyl)-2-hydroxyethane-1-sulfonamide]
- IC50 (HCC15 cells; 168 h, HCC15, 7 days): 0.012 µM
- IC50 (NIH:OVCAR-3 cells; [2]): 0.019 µM
- IC50 (JIMT-1 cells; [3]): 0.029 µM
- IC50 (hKIF18A (1-374)): 0.005 µM

Structure (SMILES): CS(=O)(=O)Nc1ccc(-c2cn(-c3cccc(N4CCC(F)(F)CC4)c3)nn2)c(N2CCC3(CC2)CC3)c1 [Compound 64, N-(4-(1-(3-(4,4-difluoropiperidin-1-yl)phenyl)-1H-1,2,3-triazol-4-yl)-3-(6-azaspiro[2.5]octan-6-yl)phenyl)methanesulfonamide]
- IC50 (HCC15 cells; 168 h, HCC15, 7 days): 0.12 µM
- IC50 (NIH:OVCAR-3 cells; [2]): 0.12 µM
- IC50 (JIMT-1 cells; [3]): 0.12 µM
- IC50 (hKIF18A (1-374)): 0.025 µM

Structure (SMILES): O=S(=O)(CCO)Nc1ccc(-n2cc(-c3cccc(C(O)C4CCCC4)n3)nn2)c(N2CCC3(CC2)CC3)c1 (single isomer, unassigned) [Compound 90b]
- IC50 (HCC15 cells; HCC15, 7 days): 0.013 µM
- IC50 (NIH:OVCAR-3 cells; NIH:OVCAR3, 7 days): 0.021 µM
- IC50 (JIMT-1 cells; JIMT-1, 7 days): 0.02 µM
- IC50 (hKIF18A (1-374)): 0.0056 µM

Structure (SMILES): CCS(=O)(=O)Nc1ccc(-c2cn(-c3cccc(S(=O)(=O)NC(C)(C)C)c3)nn2)c(N2CCC3(CC2)CC3)c1 [Compound 110, N-(tert-butyl)-3-(4-(4-(ethylsulfonamido)-2-(6-azaspiro[2.5]octan-6-yl)phenyl)-1H-1,2,3-triazol-1-yl)benzenesulfonamide]
- IC50 (HCC15 cells; 168 h, HCC15, 7 days): 0.0033 µM
- IC50 (NIH:OVCAR-3 cells; [2]): 0.0044 µM
- IC50 (JIMT-1 cells; [3]): 0.0068 µM
- IC50 (hKIF18A (1-374)): 0.015 µM

Structure (SMILES): Cc1cc(NC(=O)c2ccc(NS(=O)(=O)CCO)cc2N2CCC3(CC2)CC3)nc(N2CCC(F)(F)CC2)n1 [AMG650, 2-(6-azaspiro[2.5]octan-6-yl)-N-[2-(4,4-difluoropiperidin-1-yl)-6-methylpyrimidin-4-yl]-4-(2-hydroxyethanesulfonamido)benzamide, reference compound]
- IC50 (HCC15 cells; HCC15, 168 h): 0.066 µM
- IC50 (NIH:OVCAR-3 cells; Homo sapiens, OVCAR-3, 168 h): 0.1 µM
- IC50 (JIMT-1 cells; Homo sapiens, JIMT-1, 168 h): 0.13 µM

Structure (SMILES): Cc1cc(-c2cn(-c3ccc(NS(=O)(=O)CCO)cc3N3CCC(C)CC3)nn2)nc(N2CCC(F)(F)CC2)n1 [Compound 89, N-(4-(4-(2-(4,4-difluoropiperidin-1-yl)-6-methylpyrimidin-4-yl)-1H-1,2,3-triazol-1-yl)-3-(4-methylpiperidin-1-yl)phenyl)-2-hydroxyethane-1-sulfonamide]
- IC50 (HCC15 cells; 168 h, HCC15, 7 days): 0.034 µM
- IC50 (NIH:OVCAR-3 cells; [2]): 0.051 µM
- IC50 (JIMT-1 cells; [3]): 0.048 µM
- IC50 (hKIF18A (1-374)): 0.021 µM

Structure (SMILES): O=S(=O)(CCO)Nc1ccc(-n2cc(-c3cccc(C(O)C4CCCC4)n3)nn2)c(N2CCC3(CC2)CC3)c1 (single isomer, unassigned) [Compound 90a]
- IC50 (HCC15 cells; HCC15, 7 days): 0.0074 µM
- IC50 (NIH:OVCAR-3 cells; NIH:OVCAR3, 7 days): 0.014 µM
- IC50 (JIMT-1 cells; JIMT-1, 7 days): 0.011 µM
- IC50 (hKIF18A (1-374)): 0.0052 µM

Structure (SMILES): CCS(=O)(=O)Nc1cc(N2CCC3(CC2)CC3)c(-n2cc(-c3cccc(S(=O)(=O)NC(C)(C)C)c3)nn2)cc1F [Compound 117, N-(tert-butyl)-3-(1-(4-(ethylsulfonamido)-5-fluoro-2-(6-azaspiro[2.5]octan-6-yl)phenyl)-1H-1,2,3-triazol-4-yl)benzenesulfonamide]
- IC50 (HCC15 cells; 168 h, HCC15, 7 days): 0.01 µM
- IC50 (NIH:OVCAR-3 cells; [2]): 0.013 µM
- IC50 (JIMT-1 cells; [3]): 0.014 µM
- IC50 (hKIF18A (1-374)): 0.02 µM

Structure (SMILES): O=S(=O)(CCO)Nc1ccc(-n2cc(-c3cccc(OC4CCCC4)n3)nn2)c(N2CCC3(CC2)CC3)c1 [Compound 100, N-(4-(4-(6-(cyclopentyloxy)pyridin-2-yl)-1H-1,2,3-triazol-1-yl)-3-(6-azaspiro[2.5]octan-6-yl)phenyl)-2-hydroxyethane-1-sulfonamide]
- IC50 (HCC15 cells; 168 h, HCC15, 7 days): 0.045 µM
- IC50 (NIH:OVCAR-3 cells; [2]): 0.08 µM
- IC50 (JIMT-1 cells; [3]): 0.06 µM
- IC50 (hKIF18A (1-374)): 0.011 µM

Structure (SMILES): Cc1cc(-c2cn(-c3ccc(NS(=O)(=O)C4(CO)CC4)cc3N3CCCCC3)nn2)nc(N2CCC(F)(F)CC2)n1 [Compound 91, N-(4-(4-(2-(4,4-difluoropiperidin-1-yl)-6-methylpyrimidin-4-yl)-1H-1,2,3-triazol-1-yl)-3-(piperidin-1-yl)phenyl)-1-(hydroxymethyl)cyclopropane-1-sulfonamide]
- IC50 (HCC15 cells; 168 h, HCC15, 7 days): 0.029 µM
- IC50 (NIH:OVCAR-3 cells; [2]): 0.04 µM
- IC50 (JIMT-1 cells; [3]): 0.035 µM
- IC50 (hKIF18A (1-374)): 0.036 µM

Structure (SMILES): Cc1cc(N2CCC(F)(F)CC2)nc(-n2cc(-c3ccc(NS(=O)(=O)CCO)cc3N3CCC4(CC3)CC4)nn2)c1 [Compound 95, N-(4-(1-(6-(4,4-difluoropiperidin-1-yl)-4-methylpyridin-2-yl)-1H-1,2,3-triazol-4-yl)-3-(6-azaspiro[2.5]octan-6-yl)phenyl)-2-hydroxyethane-1-sulfonamide]
- IC50 (HCC15 cells; 168 h, HCC15, 7 days): 0.037 µM
- IC50 (NIH:OVCAR-3 cells; [2]): 0.051 µM
- IC50 (JIMT-1 cells; [3]): 0.068 µM
- IC50 (hKIF18A (1-374)): 0.038 µM

Structure (SMILES): Cc1cc(-n2cc(-c3ccc(NS(=O)(=O)CCO)cc3N3CCC4(CC3)CC4)nn2)nc(N2CC3C(C2)C3(F)F)n1 (stereo not drawn) [Compound 97, N-(4-(1-(2-(6,6-difluoro-3-azabicyclo[3.1.0]hexan-3-yl)-6-methylpyrimidin-4-yl)-1H-1,2,3-triazol-4-yl)-3-(6-azaspiro[2.5]octan-6-yl)phenyl)-2-hydroxyethane-1-sulfonamide]
- IC50 (HCC15 cells; 168 h, HCC15, 7 days): 0.037 µM
- IC50 (NIH:OVCAR-3 cells; [2]): 0.072 µM
- IC50 (JIMT-1 cells; [3]): 0.11 µM
- IC50 (hKIF18A (1-374)): 0.036 µM

Structure (SMILES): O=S(=O)(CCO)Nc1ccc(-c2cn(-c3cccc(N4CCC(F)(F)CC4)n3)nn2)c(N2CCC3(CC2)CC3)c1 [Compound 71, N-(4-(1-(6-(4,4-difluoropiperidin-1-yl)pyridin-2-yl)-1H-1,2,3-triazol-4-yl)-3-(6-azaspiro[2.5]octan-6-yl)phenyl)-2-hydroxyethane-1-sulfonamide]
- IC50 (HCC15 cells; 168 h, HCC15, 7 days): 0.012 µM
- IC50 (NIH:OVCAR-3 cells; [2]): 0.013 µM
- IC50 (JIMT-1 cells; [3]): 0.02 µM
- IC50 (hKIF18A (1-374)): 0.01 µM

Structure (SMILES): Cc1cc(-c2cn(-c3ccc(NS(=O)(=O)CCO)cc3N3CCC4(CC3)CC4)nn2)nc(N2CCC(F)(F)CC2)c1 [Compound 72, N-(4-(4-(6-(4,4-difluoropiperidin-1-yl)-4-methylpyridin-2-yl)-1H-1,2,3-triazol-1-yl)-3-(6-azaspiro[2.5]octan-6-yl)phenyl)-2-hydroxyethane-1-sulfonamide]
- IC50 (HCC15 cells; 168 h, HCC15, 7 days): 0.016 µM
- IC50 (NIH:OVCAR-3 cells; [2]): 0.025 µM
- IC50 (JIMT-1 cells; [3]): 0.024 µM

Structure (SMILES): Cc1cc(-c2cn(-c3ccc(NS(=O)(=O)CCO)cc3N3CCCCC3)nn2)nc(N2CC(F)(F)C2)c1 [Compound 70, N-(4-(4-(6-(3,3-difluoroazetidin-1-yl)-4-methylpyridin-2-yl)-1H-1,2,3-triazol-1-yl)-3-(piperidin-1-yl)phenyl)-2-hydroxyethane-1-sulfonamide]
- kon (on-rate from binding kinetics assay) [1]: 2500 M⁻¹ s⁻¹
- koff [1]: 3.61e-05 s⁻¹
- Ki [1]: 0.015 µM
- disc. t1/2 (dissociation half-life ln(2)/koff) [1]: 5.4 h
- IC50 (hKIF18A (1-374)): 0.027 µM

Structure (SMILES): CS(=O)(=O)Nc1ccc(-c2nnc(-c3cccc(N4CCOCC4)n3)[nH]2)c(N2CCC3(CC2)CC3)c1 [Compound 2, N-(4-(5-(6-morpholinopyridin-2-yl)-4H-1,2,4-triazol-3-yl)-3-(6-azaspiro[2.5]octan-6-yl)phenyl)methanesulfonamide]
- IC50 (HCC15 cells; 168 h, HCC15, 7 days): 0.13 µM
- kon (on-rate from binding kinetics assay) [1]: 3890 M⁻¹ s⁻¹
- koff [1]: 3.61e-05 s⁻¹
- Ki [1]: 0.0089 µM
- disc. t1/2 (dissociation half-life ln(2)/koff) [1]: 5.5 h
- IC50 (JIMT-1 cells; [3]): 0.48 µM
- IC50 (hKIF18A (1-374)): 0.014 µM

Structure (SMILES): CS(=O)(=O)Nc1ccc(-c2nnc(-c3cccc(N4CCC(F)(F)CC4)n3)[nH]2)c(N2CCC3(CC2)CC3)c1 [Compound 5, N-(4-(5-(6-(4,4-difluoropiperidin-1-yl)pyridin-2-yl)-1H-1,2,4-triazol-3-yl)-3-(6-azaspiro[2.5]octan-6-yl)phenyl)methanesulfonamide]
- kon (on-rate from binding kinetics assay) [1]: 16900 M⁻¹ s⁻¹
- koff [1]: 2.53e-05 s⁻¹
- Ki [1]: 0.0015 µM
- disc. t1/2 (dissociation half-life ln(2)/koff) [1]: 7.6 h
- IC50 (hKIF18A (1-374)): 0.0066 µM
